Assay results reported in patent US8309766B2 (Obschestvo S. Organichennoi Otvetstvennostiyu …, priority 2005, dated 2012).
Read-outs that look alike come from different tables or passages of the source.

Tests used:
[1] = tested on: "acetic contortions" in mice; test: Analgetic activity on the model "acetic contortions"; type: in vivo, white mongrel mice
Procedure: The tests were conducted on males of white mongrel mice weighing 22-24 grams. The specific pain response (“contortions”) were elicited by intraperitoneal administration to mice of 0.75% acetic acid solution. The following signs were taken into consideration: the number of seizure contractions of abdominal muscles accompanied by stretching the hind limbs and sagging the back. Analgetic effect was assessed by decrease in the number of contortions in animals in percent to the control for 15 minutes post administration of acetic acid. The technique of the tests is disclosed in Koster R., Anderson M., de Beer B.//Fed. Proc. 1959. V. 18. P. 412. Compounds under testing were administered intraperitoneally (using a probe) at a dose 10 μg/kg 60 minutes prior to injection of the acid. Diclofenac (10 mg/kg) was used as a reference drug. Analgetic effect was calculated according to the formula: […]
wherein Ck is the number of contortions in the control group,
Co is the number of contortions in the test group.

"hot plate" test in mice = test: Analgetic activity on the model "hot plate"; type: in vivo, white mongrel mice; conditions: for Latent time of NT (%) / response vs control in vivo at 10 mg/kg: percent of background; for response vs control in vivo at 10 mg/kg / change in vivo at 10 mg/kg / change in vivo at 200 mg/kg / response vs control in vivo at 200 mg/kg: Mus musculus; for response vs control in vivo at 10 mg/kg / response vs control in vivo at 200 mg/kg: read-out: Latent time of NT (%); for change in vivo at 10 mg/kg / change in vivo at 200 mg/kg: read-out: Analgesia (%)
Procedure: The tests were conducted on males of white mongrel mice weighing 22-24 grams. The animals were individually placed on a hot plate (manufactured by the firm “Ugo Basile”), a temperature of which remained constant and was equal to 55° C. The following first manifestations of pain reaction were recorded: licking paws, jumping up prior to administration of a substance (background parameters) and 0.5, 1, 2, 3 and 4 hours post administration of a substance. Substances were administered […] (using a probe). A weighed amount of a substance was thoroughly mixed in 0.1 ml Tween 80 until a solution was obtained, then normal saline was added up to a volume of 0.5 ml. Average latent time of nociception threshold (NT) was calculated in every group. The results obtained were expressed in percent of the background values. Analgetic effect (in %) was calculated according to the formula: A−100%=X, wherein A is a background parameter; X is analgetic effect (in %)
A is (time 0.5 to 4 hours post administration×100%): background time
As reference drugs, Analgin (150 mg/kg), Paracetamol (200 mg/kg), Ketorol (10 mg/kg), were used.

[2] = dose 10 mg/kg (table title), 60 minutes prior to acetic acid
[3] = 10 mg/kg, 30 minutes post administration
[4] = 10 mg/kg, 60 minutes post administration
[5] = 10 mg/kg, 120 minutes post administration
[6] = Mus musculus, ip, 0.25 h, dose 10 mg/kg (table title), read-out: Analgetic effect (%)
[7] = Mus musculus, ip, 0.25 h, dose 10 mg/kg (table title), read-out: C, % to the control
[8] = 0.5 h, Paracetamol 200 mg/kg, 30 minutes
[9] = 1 h, Paracetamol 200 mg/kg, 60 minutes
[10] = 2 h, Paracetamol 200 mg/kg, 120 minutes

| SMILES | C ± m (the number of contortions for 15 minutes) [1, 2] | latent time of nociception threshold, M ± m ("hot plate" test in mice; [3]) [s] | latent time of nociception threshold, M ± m ("hot plate" test in mice; [4]) [s] | latent time of nociception threshold, M ± m ("hot plate" test in mice; [5]) [s] | inhibition in vivo at 10 mg/kg [1, 6] [%] | response vs control in vivo at 10 mg/kg [1, 7] [%] | response vs control in vivo at 10 mg/kg ("hot plate" test in mice; 0.5 h, 10 mg/kg, 30 minutes) [%] | change in vivo at 10 mg/kg ("hot plate" test in mice; 0.5 h, 10 mg/kg, 30 minutes) [%] | response vs control in vivo at 10 mg/kg ("hot plate" test in mice; 1 h, 10 mg/kg, 60 minutes) [%] | change in vivo at 10 mg/kg ("hot plate" test in mice; 1 h, 10 mg/kg, 60 minutes) [%] | response vs control in vivo at 10 mg/kg ("hot plate" test in mice; 2 h, 10 mg/kg, 120 minutes) [%] | change in vivo at 10 mg/kg ("hot plate" test in mice; 2 h, 10 mg/kg, 120 minutes) [%] | also measured |
| --- | --- | --- | --- | --- | --- | --- | --- | --- | --- | --- | --- | --- | --- |
| O=C(CCc1ccccc1)N[C@@H](Cc1ccc(O)cc1)C(=O)OCc1ccccc1 [Compound XXX, 3-phenylproponyltyrosine benzyl ester] | 11.9 ± 1.7 | 6.9 ± 0.8 | 9.0 ± 0.9 | 9.1 ± 1.4 |  |  |  |  |  |  |  |  | Analgetic effect, % ([1]; dose 10 mg/kg (table title)): 36.1%; C, % to the control ([1]; dose 10 mg/kg (table title)): 63.9%; Analgesia (%) ("hot plate" test in mice; 10 mg/kg, 30 minutes): 68.3%; Latent time of NT (%) ("hot plate" test in mice; 10 mg/kg, 30 minutes): 168.3%; Analgesia (%) ("hot plate" test in mice; 10 mg/kg, 60 minutes): 113.8%; Latent time of NT (%) ("hot plate" test in mice; 10 mg/kg, 60 minutes): 213.8%; Analgesia (%) ("hot plate" test in mice; 10 mg/kg, 120 minutes): 121.9%; Latent time of NT (%) ("hot plate" test in mice; 10 mg/kg, 120 minutes): 221.9% |
| O=C(Cc1ccc(O)cc1)NC(Cc1ccc(O)cc1)C(=O)O (stereo not shown) [Compound II, p-hydroxyphenylacetyltyrosine] | 24.2 ± 1.9 | 6.0 ± 0.6 | 6.1 ± 0.8 | 7.3 ± 0.6 | 24.8 | 75.2 | 176 | 76.5 | 179 | 79.4 | 215 | 115 |  |
| CC(=O)N[C@@H](Cc1ccc(O)cc1)C(=O)NCCc1ccc(O)cc1 [Compound XXIX, acetyltyrosyltyramine] | 15.7 ± 1.9 | 6.3 ± 1.2 | 7.2 ± 0.8 | 8.0 ± 1.0 | 42.9 | 57.1 | 197 | 197 | 225 | 125 | 250 | 150 |  |
| CC(=O)Nc1ccc(O)cc1 [Paracetamol, reference compound] |  |  |  |  |  |  |  |  |  |  |  |  | change in vivo at 200 mg/kg ("hot plate" test in mice; [8]): 139%; response vs control in vivo at 200 mg/kg ("hot plate" test in mice; [8]): 239%; change in vivo at 200 mg/kg ("hot plate" test in mice; [9]): 58%; response vs control in vivo at 200 mg/kg ("hot plate" test in mice; [9]): 158%; change in vivo at 200 mg/kg ("hot plate" test in mice; [10]): 92%; response vs control in vivo at 200 mg/kg ("hot plate" test in mice; [10]): 192%; latent time of nociception threshold, M ± m ("hot plate" test in mice; Paracetamol 200 mg/kg, 30 minutes): 9.44 ± 1.3 s; latent time of nociception threshold, M ± m ("hot plate" test in mice; Paracetamol 200 mg/kg, 60 minutes): 6.24 ± 0.82 s; latent time of nociception threshold, M ± m ("hot plate" test in mice; Paracetamol 200 mg/kg, 120 minutes): 7.6 ± 1.15 s |
| O=C(Cc1ccc(O)cc1)NCCc1ccc(O)cc1 [Compound VII, p-hydroxyphenylacetyltyramine] |  |  | 6.9 ± 0.72 | 8.2 ± 0.94 |  |  |  |  | 134 | 34.5 | 159 | 58.9 |  |
| CC(=O)N[C@@H](Cc1ccc(O)cc1)C(=O)NCCc1ccccc1 [Compound XXVIII, acetyltyrosylphenylethylamine] | 15.9 ± 2.4 | 9.2 ± 1.8 | 8.1 ± 1.0 | 11.6 ± 2.5 | 42.1 | 57.9 | 192 | 91.7 | 169 | 68.8 | 242 | 142 |  |
| COC(=O)C(Cc1ccc(O)cc1)NC(=O)Cc1ccc(O)cc1 (stereo not shown) [Compound IV, p-hydroxyphenylacetyltyrosine methyl ester] | 20.8 ± 1.9 | 5.24 ± 0.88 | 5.54 ± 0.32 | 5.93 ± 0.59 | 22.1 | 77.9 | 104 | 4.2 | 110 | 10.1 | 118 | 17.9 |  |
| O=C(O)Cc1ccccc1Nc1c(Cl)cccc1Cl [Diclofenac, reference compound] |  |  |  |  |  |  |  |  |  |  |  |  | C ± m (the number of contortions for 15 minutes) ([1]; Diclofenac 10 μg/kg [sic]): 12.9 ± 2.13 |
| COC(=O)C(Cc1ccccc1)NC(=O)Cc1ccc(O)cc1 (stereo not shown) [Compound V, p-hydroxyphenylacetylphenylalanine methyl ester] | 16.2 ± 2.6 | 4.85 ± 0.39 | 5.9 ± 0.81 | 6.58 ± 0.72 | 39.3 | 60.7 | 130 | 29.7 | 158 | 57.8 | 176 | 75.9 |  |
| O=C(Cc1ccccc1)NCCc1ccc(O)cc1 [Compound VI, phenylacetyltyramine] | 21.1 ± 1.8 | 7.8 ± 0.8 | 8.3 ± 1.0 | 6.8 ± 0.5 | 25.5 | 74.5 | 132 | 32.2 | 141 | 40.7 | 115 | 15.3 |  |
| O=C(O)Cc1ccccc1Nc1c(Cl)cccc1Cl [Voltaren, reference compound] |  |  |  |  |  |  |  |  |  |  |  |  | inhibition in vivo at 0.008 mg/kg ([1]; Mus musculus, ip, 0.25 h, Voltaren 8 μg/kg, read-out: Analgetic effect (%)): 44.5%; response vs control in vivo at 0.008 mg/kg ([1]; Mus musculus, ip, 0.25 h, Voltaren 8 μg/kg, read-out: C, % to the control): 55.5%; C ± m (the number of contortions for 15 minutes) ([1]; Voltaren 8 μg/kg): 15.8 ± 2.6 |
